# Measured values: ChEMBL document CHEMBL3867433, “Synthesis and antimicrobial activity of styryl/pyrrolyl/pyrazolyl sulfonylmethyl-1,3,4-oxadiazolyl amines and styryl/pyrrolyl/pyrazolyl sulfonylmethyl-1,3,4-thiadiazolyl amines” (2016)
# Tests used:
# Assay type in all cases: functional
# Aspergillus niger [1] = test: Antifungal activity against Aspergillus niger assessed as inhibition of spore germination after 48 hrs by broth dilution method
# Aspergillus niger [2] = test: Antifungal activity against Aspergillus niger assessed as inhibition of spore germination at 100 ug/well after 48 hrs by agar well diffusion method; details: read-out: DIZ
# Aspergillus niger [3] = test: Antifungal activity against Aspergillus niger assessed as inhibition of spore germination at 50 ug/well after 48 hrs by agar well diffusion method; details: read-out: DIZ
# [4] = Antifungal activity against Penicillium chrysogenum assessed as inhibition of spore germination at 100 ug/well after 48 hrs by agar well diffusion method
# [5] = Antifungal activity against Penicillium chrysogenum assessed as inhibition of spore germination at 12.5 ug/well after 48 hrs by agar well diffusion method
# [6] = Antifungal activity against Penicillium chrysogenum assessed as inhibition of spore germination after 48 hrs by broth dilution method
# [7] = Antifungal activity against Penicillium chrysogenum assessed as inhibition of spore germination at 25 ug/well after 48 hrs by agar well diffusion method
# [8] = Antifungal activity against Penicillium chrysogenum assessed as inhibition of spore germination at 50 ug/well after 48 hrs by agar well diffusion method
# Aspergillus niger [9] = test: Antifungal activity against Aspergillus niger assessed as inhibition of spore germination at 25 ug/well after 48 hrs by agar well diffusion method; details: read-out: DIZ
# Aspergillus niger [10] = test: Antifungal activity against Aspergillus niger assessed as inhibition of spore germination at 12.5 ug/well after 48 hrs by agar well diffusion method; details: read-out: DIZ
# Staphylococcus aureus [11] = test: Antibacterial activity against Staphylococcus aureus at 25 ug/well after 24 hrs by agar well diffusion method; details: read-out: DIZ
# Pseudomonas aeruginosa [12] = test: Antibacterial activity against Pseudomonas aeruginosa at 25 ug/well after 24 hrs by agar well diffusion method; details: read-out: DIZ
# Bacillus subtilis [13] = test: Antibacterial activity against Bacillus subtilis at 12.5 ug/well after 24 hrs by agar well diffusion method; details: read-out: DIZ
# Klebsiella pneumoniae [14] = test: Antibacterial activity against Klebsiella pneumoniae at 50 ug/well after 24 hrs by agar well diffusion method; details: read-out: DIZ
# Staphylococcus aureus [15] = test: Antibacterial activity against Staphylococcus aureus at 100 ug/well after 24 hrs by agar well diffusion method; details: read-out: DIZ
# Bacillus subtilis [16] = test: Antibacterial activity against Bacillus subtilis at 50 ug/well after 24 hrs by agar well diffusion method; details: read-out: DIZ
# Pseudomonas aeruginosa [17] = test: Antibacterial activity against Pseudomonas aeruginosa at 100 ug/well after 24 hrs by agar well diffusion method; details: read-out: DIZ
# Klebsiella pneumoniae [18] = test: Antibacterial activity against Klebsiella pneumoniae at 100 ug/well after 24 hrs by agar well diffusion method; details: read-out: DIZ
# Klebsiella pneumoniae [19] = test: Antibacterial activity against Klebsiella pneumoniae at 25 ug/well after 24 hrs by agar well diffusion method; details: read-out: DIZ
# Staphylococcus aureus [20] = test: Antibacterial activity against Staphylococcus aureus at 12.5 ug/well after 24 hrs by agar well diffusion method; details: read-out: DIZ
# Pseudomonas aeruginosa [21] = test: Antibacterial activity against Pseudomonas aeruginosa at 12.5 ug/well after 24 hrs by agar well diffusion method; details: read-out: DIZ
# Bacillus subtilis [22] = test: Antibacterial activity against Bacillus subtilis at 25 ug/well after 24 hrs by agar well diffusion method; details: read-out: DIZ
# Staphylococcus aureus [23] = test: Antibacterial activity against Staphylococcus aureus at 50 ug/well after 24 hrs by agar well diffusion method; details: read-out: DIZ
# Klebsiella pneumoniae [24] = test: Antibacterial activity against Klebsiella pneumoniae at 12.5 ug/well after 24 hrs by agar well diffusion method; details: read-out: DIZ
# Pseudomonas aeruginosa [25] = test: Antibacterial activity against Pseudomonas aeruginosa at 50 ug/well after 24 hrs by agar well diffusion method; details: read-out: DIZ
# Bacillus subtilis [26] = test: Antibacterial activity against Bacillus subtilis at 100 ug/well after 24 hrs by agar well diffusion method; details: read-out: DIZ
Structure (SMILES),zone of inhibition at 100 µg/disc (Aspergillus niger [2]) [mm],zone of inhibition at 50 µg/disc (Aspergillus niger [3]) [mm],inhibition zone (IZ) [4] [mm],inhibition zone (IZ) [5] [mm],inhibition zone (IZ) [7] [mm],inhibition zone (IZ) [8] [mm],zone of inhibition at 25 µg/disc (Aspergillus niger [9]) [mm],zone of inhibition at 12.5 µg/disc (Aspergillus niger [10]) [mm],zone of inhibition at 25 µg/disc (Staphylococcus aureus [11]) [mm],zone of inhibition at 25 µg/disc (Pseudomonas aeruginosa [12]) [mm],zone of inhibition at 12.5 µg/disc (Bacillus subtilis [13]) [mm],zone of inhibition at 50 µg/disc (Klebsiella pneumoniae [14]) [mm],zone of inhibition at 100 µg/disc (Staphylococcus aureus [15]) [mm],zone of inhibition at 50 µg/disc (Bacillus subtilis [16]) [mm],zone of inhibition at 100 µg/disc (Pseudomonas aeruginosa [17]) [mm],zone of inhibition at 100 µg/disc (Klebsiella pneumoniae [18]) [mm],zone of inhibition at 25 µg/disc (Klebsiella pneumoniae [19]) [mm],zone of inhibition at 12.5 µg/disc (Staphylococcus aureus [20]) [mm],zone of inhibition at 12.5 µg/disc (Pseudomonas aeruginosa [21]) [mm],zone of inhibition at 25 µg/disc (Bacillus subtilis [22]) [mm],other results
CC(=O)N1CCN(c2ccc(OCC3COC(Cn4ccnc4)(c4ccc(Cl)cc4Cl)O3)cc2)CC1 (configuration not stated) [KETOCONAZOLE],37,34,39,34,36,37,31,29,–,–,–,–,–,–,–,–,–,–,–,–,MIC (Aspergillus niger [1]): 6.25 µg/mL; MIC [6]: 12.5 µg/mL
Nc1nnc(CS(=O)(=O)c2c[nH]cc2-c2ccccc2)s1,18,16,31,25,27,29,14,12,19,21,20,29,24,22,25,31,27,17,19,21,zone of inhibition at 50 µg/disc (Staphylococcus aureus [23]): 22 mm; zone of inhibition at 12.5 µg/disc (Klebsiella pneumoniae [24]): 26 mm; zone of inhibition at 50 µg/disc (Pseudomonas aeruginosa [25]): 23 mm; zone of inhibition at 100 µg/disc (Bacillus subtilis [26]): 24 mm
Nc1nnc(CS(=O)(=O)/C=C\c2ccccc2)o1,15,13,17,11,13,15,11,9,13,16,12,19,18,14,20,21,17,11,14,13,zone of inhibition at 50 µg/disc (Staphylococcus aureus [23]): 15 mm; zone of inhibition at 12.5 µg/disc (Klebsiella pneumoniae [24]): 15 mm; zone of inhibition at 50 µg/disc (Pseudomonas aeruginosa [25]): 18 mm; zone of inhibition at 100 µg/disc (Bacillus subtilis [26]): 16 mm
Cc1ccc(-c2c[nH]cc2S(=O)(=O)Cc2nnc(N)s2)cc1,15,13,28,22,24,26,11,9,17,19,18,24,22,20,23,26,22,15,17,19,zone of inhibition at 50 µg/disc (Staphylococcus aureus [23]): 19 mm; zone of inhibition at 12.5 µg/disc (Klebsiella pneumoniae [24]): 20 mm; zone of inhibition at 50 µg/disc (Pseudomonas aeruginosa [25]): 21 mm; zone of inhibition at 100 µg/disc (Bacillus subtilis [26]): 22 mm
